The conditions of data set [1]: cited from earlier work; for exp ODT water: Booleans database; for Odor Detection Threshold: Table 24, Floral fragrance.
Data set [2] can be described thus: Calculated pseudo-acceleration (Γ) of odorants in water, water-air and air. From the text: In the analysis of the volatility of odorants, several variables are found to be important. First, the vapor pressure of the odorant is an important measure of its volatility. The product of the odorant's activity coefficient γ in the partition its mole fraction X and its pure vapor pressure value Pv, gives the odorant's relative vapor pressure. A second important factor for volatility is the diffusivity D12 of the odorant in the considered media: water, vapor phase and subsequently air.
Other important variables to consider are the molecular weight Mw, of the odorant and its density in the partition ρl and in the solvent vapor state ρv. The final variable to consider is an energy parameter in the partition state. The energy difference ε12=ε12(polar)−ε12o(non-polar) is proportional to the partition coefficient of an odorant in a polar solvent such as water, and a water immiscible solvent such as octanol, benzene and paraffin liquid. The energy ε12 is called the partition energy and can be correlated to the clogP value of odorants.
The five variables D12, Pv, Mw, ρv and ε12 and the three dimensional variables indicate that there can be 5−3=2 dimensional variables which describe Newton's law. The easiest separation is to break the acceleration vector into 2 dimensional quantities: a frequency or first order rate constant (1/time) and a velocity (distance/time) term.
The velocity group can be formed from the vapor pressure and density. Since pressure has units of mass*distance/distance^2*time^2, and density has units of mass/distance^3, the ratio of the two has units of velocity squared. The square root gives the desired velocity.
The first order rate constant can be formed from the variables Mw, D12 and ε12. Since the partition energy ε12 has dimensions of calories per mole (mass.length^2/mole.time^2) and the diffusivity coefficient D12 has a dimension of distance^2 per time, the ratio yields exactly a molecular weight unit per time t. The energy can be made dimensionless by dividing by the gas constant k and temperature T. The remaining variable D12 can be made to a frequency by dividing by a cross sectional area L^2. A molecular area calculated from the liquid molar volume could represent this area.
Pseudo acceleration values are also closely linked to the ability of an odorant to travel through headspace once it is airborne in addition to its ability to migrate through the water and water-air partitions.

Data set [3] in a line: GC-MS headspace release profile of perfume in shampoo, 1/100 dilution in water. It counts as physicochemical. To be noted: Tropical Fruit Perfume. As to the method:
Experimental Procedure: Individual odorant to be tested was added to 20 g of shampoo formulation (see formula below in Table 4) at 0.1%.
A 10 gram sample of formulation and fragrance was added to an empty 1000 ml pyrex beaker. This beaker was then filled with 1000 ml of 120 F tap water. Beaker with diluted shampoo sample was then immediately placed into a semi-enclosed plexiglass chamber.
Headspace Sampling: Once beaker was placed into chamber a Carboxan SPME field fiber was held at the top-side opening of the chamber over the beaker containing the sample. […] […] Top of plexiglass chamber was held open for entire 5 minutes of headspace sampling.

The conditions of data set [4]: cited from earlier work.
For data set [5] the following is noted: Randebrock 1986; cited from earlier work.

Consider 15 compounds from patent publication US7517840B2, “Optimized perfumery for rinse-off products” (Givaudan Fragrances Corporation, priority 2005, dated 2009).

Entries after “also recorded” stand apart in the source; their conditions may differ. Like-named read-outs stand apart in the source and are kept apart here.

Consider `CCC=CCCC=CCO` [2,6 NONADIEN-1-OL], for which, in data set [1] (Table 26, cucumber-melon note), the ODT is reported as 50 ppb or less. The “odor detection threshold value in water” value in data set [1] is 1 part per billion. For the same compound, in data set [2], the “release category by Γ” value was “sustained release”.

Consider `CC=CC(=O)C1C(C)=CCCC1(C)C` (stereo not drawn) [alpha-DAMASCONE, α-1-(2,6,6-Trimethyl-2-cyclohexen-1-yl)-2-buten-1-one], for which the “GC Abundance” value in data set [3] (40 seconds) is on record as 1000; in data set [3] (50 seconds) it was 5000. Further, in data set [1], the “exp ODT water” value is 1.5 ppb. The ODT in data set [1] (Table 17, apple note compounds) is recorded as 50 ppb or less.

Take `CCCC(C)C(=O)OCC` (centres unmarked) [MANZANATE, Ethyl 2-methylpentanoate]: the “GC Abundance” value in data set [3] (10 seconds) was 1000; in data set [3] (20 seconds), 4000; in data set [3] (30 seconds), 4000; in data set [3] (40 seconds), 3000; in data set [3] (50 seconds), 1500. Further, the “exp ODT water” value in data set [1] was 0.0030 ppb. The ODT in data set [1] (Table 17, apple note compounds) is on record as 50 ppb or less. For the same compound, the “odor detection threshold in water” value in data set [1] (text b188) is 0.003 parts per billion.

As to `C=CC(C)(O)CCC=C(C)C` (centres unmarked) [LINALOOL, linalool], the “GC Abundance” value was determined as 500 in data set [3] (10 seconds); 18000 in data set [3] (20 seconds); 18000 in data set [3] (30 seconds); 18000 in data set [3] (40 seconds); 18000 in data set [3] (50 seconds). Moreover, the “Odor Detection Threshold” value in data set [1] is reported as 50 ppb or less.

In the case of `CC(=O)OC1CCCCC1C(C)(C)C` (centres unmarked) [VERDOX], the “GC Abundance” value in data set [3] (20 seconds) was 5000; in data set [3] (30 seconds), 14000; in data set [3] (40 seconds), 18000; in data set [3] (50 seconds) it was 20000. Moreover, the “release category by Γ” value in data set [2] is “sustained release”.

For the compound `CC(C)=CCCC(C)=CCS` [THIOGERANIOL, 3,7-Dimethyl-2,6-octadien-1-thiol], the ODT in data set [1] (Table 32, citrus note) is 50 ppb or less. The entries for the “Boiling Point” value in data set [4] (Table 33) and in data set [4] were 250 deg C and 250 °C, respectively. Further, the “release category by Γ” value in data set [2] was “sustained release”.

Consider `CC1=CCC(C(C)(C)S)CC1` (centres unmarked), for which the ODT in data set [1] (Table 32, citrus note) is 50 ppb or less. Besides, the “Boiling Point” value in data set [4] (Table 33) is 229 deg C. Also, the “release category by Γ” value in data set [2] is reported as “flash release”.

As to `CCCCC/C=C/CCC=O` [TRANS-4-DECEN-1-AL], the ODT in data set [1] (Table 32, citrus note) is recorded as 50 ppb or less. Moreover, the “Boiling Point” value in data set [4] (Table 33) was 200 deg C. In addition, the “release category by Γ” value in data set [2] is listed as “flash release”.

Consider `CCCCCC1C(=O)CCC1CC(=O)OC` (centres unmarked) [HEDIONE], for which, in data set [3] (50 seconds), the “GC Abundance” value was found to be 4000. For the same compound, in data set [1], the “Odor Detection Threshold” value is given as 50 ppb or less.

As to `C=C(C)[C@H]1CC=C(C)CC1` [d-LIMONENE, d-1-Methyl-4-isopropenyl-1-cyclohexene], the “GC Abundance” value was 7000 in data set [3] (5 seconds); 7000 in data set [3] (10 seconds); 7000 in data set [3] (20 seconds); 7000 in data set [3] (30 seconds); 5000 in data set [3] (40 seconds); 4000 in data set [3] (50 seconds). In addition, the “release category by Γ” value in data set [2] is recorded as “flash release; also recorded: flash-release”.

Consider `CC(C)=CC1CC(C)CCO1` (stereo not drawn) [ROSE OXIDE (HIGH CIS), Tetrahydro-4-methyl-2-(2-methylpropen-1-yl)pyran], for which the “GC Abundance” value in data set [3] (20 seconds) came to 10000; in data set [3] (30 seconds), 14000; in data set [3] (40 seconds) it was 14000; in data set [3] (50 seconds), 14000. In data set [1], the “exp ODT water” value was 0.5 ppb.

On to `CCOC(=O)C(C)CC` (centres unmarked) [ETHYL 2-METHYLBUTYRATE, Ethyl 2-methylbutyrate], for which the “GC Abundance” value came to 3000 in data set [3] (10 seconds); 3100 in data set [3] (20 seconds); 3100 in data set [3] (30 seconds); 2000 in data set [3] (40 seconds); 1500 in data set [3] (50 seconds). Moreover, in data set [1], the “exp ODT water” value was 0.1-0.3 ppb. Further, in data set [1] (Table 17, apple note compounds), the ODT was 50 ppb or less. The “release category by Γ” value in data set [2] is reported as “flash-release”.

As to `CCC=CCCC=CC=O` [2,6-NONADIENAL], the ODT in data set [1] (Table 26, cucumber-melon note) is given as 50 ppb or less. Further, in data set [1], the “odor detection threshold values in water” value is reported as 0.01 ppb. The “release category by Γ” value in data set [2] is listed as “flash release”.

As for `CCCCCCCCCCC=O` [1-undecanal], in data set [5], the “experimental odor detection threshold in air” value is recorded as 0.00054 mg/m^3.

For `CCCC(=O)OCC` [ETHYL BUTYRATE, Ethyl butyrate], the “GC Abundance” value in data set [3] (10 seconds) was determined as 2800; in data set [3] (20 seconds), 2800; in data set [3] (30 seconds), 2800; in data set [3] (40 seconds) it was 2000; in data set [3] (50 seconds) it was 800. In addition, in data set [1], the “exp ODT water” value is 1 ppb.
